Experimental data: patent publication US10174013B2, “Benzimidazole derivatives as kinase inhibitors” (SELVITA S.A., priority 2012, dated 2019)
pIC50: −log10 of the molar value. Structures can show the parent of a compound that is named as a salt. Where two headings read alike, the source gives them in different places.

Legend:
MV4-11 cells = assay: Growth inhibition, MTS assay, MV4-11; format: cell-based, Human; conditions: MTS cell viability, read-out: MV4-11 ED50; for pIC50: Homo sapiens, MV4-11, 72 h; for IC50: 72 hours
Source text: (§1) The following cell lines, were obtained and used in tests as outlined below: • Human myelomonocytic, biphenotypic leukemia MV4-11 cells (harboring a Flt3-ITD mutation); • Human Acute Myeloid Leukemia MOLM16 cells; • Human Acute Myeloid Leukemia MOLM13 cells (harboring a Flt3-ITD mutation); • Human Myeloid Leukemia KG-1 cells; • Human erythroleukemia HEL92 cells; • Human mantle cell lymphoma Jeko-1 cells; • Human hepatocellular carcinoma HepG2 cells; and • Human colon adenocarcinoma SW-480 cells.
(§2) The assays were carried out according to the following protocol, which is described as an example for the MV4-11 cells:
(§3) Ten thousand MV4-11 cells were inoculated into each well of a 96-well microplate (manufactured by Corning Corp.) using Iscove's MDM medium (culture medium) containing 10% fetal calf serum (FCS). The same day, a dimethyl sulfoxide (DMSO) solution of each test compound prepared in a concentration of 10 mmol/L was further diluted with DMSO to the desired concentrations (0.1, 0.5, 1, 2.5, 5 and 10 micromol/L), and the diluted solution was added to each well. The individual wells were further cultured in 5% carbon dioxide at 37° C. for 72 hours. […] Briefly, 10 μl MTS (3-(4,5-Dimethyl-2-thiazolyl)-5-(carboxymethoxyphenyl)-2-(4-sulfophenyl)-2H-tetrazolium was added to each well, and culturing was performed in 5% carbon dioxide at 37° C. for 2 hours. After this incubation and using a microplate spectrophotometer (Synergy 2 multi-mode microplate reader (BioTek)), the absorbance of each well was measured at 490 nm. The value for cells not incubated with a test compound was designated as 100%. By comparing these values with the absorbance difference obtained at the well in which each test compound was added, the cell viability (% viability) after treatment with the test compound was calculated.

HEL92 cells = assay: Growth inhibition, MTS assay, HEL92; format: cell-based, Human; conditions: MTS cell viability, read-out: HEL92 ED50; for pIC50: Homo sapiens, 72 h; for IC50: 72 hours
Source text: as §1, §2, §3

HepG2 cells = assay: Growth inhibition, MTS assay, HepG2; format: cell-based, Human; conditions: MTS cell viability, read-out: HepG2 ED50; for pIC50: Homo sapiens, HepG2, 72 h; for IC50: 72 hours
Source text: as §1, §2, §3

SW-480 cells = assay: Growth inhibition, MTS assay, SW-480; format: cell-based, Human; conditions: 72 hours, MTS cell viability, read-out: SW-480 ED50; for pIC50: Homo sapiens, SW480
Source text: as §1, §2, §3

Pim-1 = Pim-1 (Homo sapiens (Human), UniProt P11309); assay: ADP-Glo Kinase Assay, Pim-1; format: biochemical; conditions: 1 μM compound; for inhibition at 1 µM: read-out: Pim-1 % INH (1 μM)
Chain of Pim-1 (P11309 whole entry): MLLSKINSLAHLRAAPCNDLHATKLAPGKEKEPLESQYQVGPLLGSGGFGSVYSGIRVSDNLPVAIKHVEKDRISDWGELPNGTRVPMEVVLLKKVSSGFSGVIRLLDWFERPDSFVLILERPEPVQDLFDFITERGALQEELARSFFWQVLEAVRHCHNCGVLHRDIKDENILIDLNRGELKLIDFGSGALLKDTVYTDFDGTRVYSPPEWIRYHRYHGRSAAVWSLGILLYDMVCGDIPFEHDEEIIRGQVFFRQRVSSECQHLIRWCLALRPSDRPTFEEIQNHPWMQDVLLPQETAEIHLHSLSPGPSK
Procedure: (§4) Compounds of the present invention were tested for their inhibitory activity against Pim-1, Pim-2, Pim-3, Flt3 wt, Flt3 ITD, CDK2/E and DYRK1. The testing of the compounds was carried out using the ADP-Glo™ Kinase Assay from Promega Corporation (Madison, Wis., USA).
(§5) The ADP-Glo™ Kinase Assay is a luminescent ADP detection assay to measure kinase activity by quantifying the amount of ADP produced during a kinase reaction. The kinase assay is performed in kinase assay buffer (5 mM MOPS, pH 7.5, 5 mM MgCl2, 0.4 mM EDTA, 1.5 mM DTT). Test samples initially dissolved in DMSO at 10 mM were diluted with the assay buffer to 1000 nM. A 30 μL volume/well of a mixture of substrates containing ATP (final ATP concentration in each kinase assay was equal to its apparent ATP Km).
(§6) The assay was performed in two steps: first, after the kinase reaction, an equal volume of ADP-Glo™ Reagent was added to terminate the kinase reaction and deplete the remaining ATP. Second, the Kinase Detection Reagent was added to simultaneously convert ADP to ATP and allowed the newly synthesized ATP to be measured using a luciferase/luciferin reaction. The luminescent signal generated was proportional to the ADP concentration produced and was correlated with kinase activity. A microplate spectrophotometer (Synergy 2 multi-mode microplate reader [BioTek]) was used for detecting the luminescence. The data was normalized and the percent of inhibition was obtained according to the following equation: […]

Pim-2 = Pim-2 (Homo sapiens (Human), UniProt Q9P1W9); assay: ADP-Glo Kinase Assay, Pim-2; format: biochemical; conditions: 1 μM compound; for inhibition at 1 µM: read-out: Pim-2 % INH (1 μM)
Chain of Pim-2 (Q9P1W9 whole entry): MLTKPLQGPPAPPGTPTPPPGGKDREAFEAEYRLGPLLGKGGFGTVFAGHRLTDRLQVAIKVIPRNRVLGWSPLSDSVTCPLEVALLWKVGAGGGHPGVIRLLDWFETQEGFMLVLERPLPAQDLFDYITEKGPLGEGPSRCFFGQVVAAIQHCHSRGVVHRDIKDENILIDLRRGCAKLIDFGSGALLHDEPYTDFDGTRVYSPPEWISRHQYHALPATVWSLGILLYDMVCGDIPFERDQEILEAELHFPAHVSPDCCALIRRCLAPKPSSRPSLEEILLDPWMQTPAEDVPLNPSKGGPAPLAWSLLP
Procedure: as §4, §5, §6

Pim-3 = Pim-3 (Homo sapiens (Human), UniProt Q86V86); assay: ADP-Glo Kinase Assay, Pim-3; format: biochemical; conditions: 1 μM compound; for inhibition at 1 µM: read-out: Pim-3 % INH (1 μM)
Procedure: as §4, §5, §6

FLT3wt = FLT3wt (Homo sapiens (Human), UniProt P36888); assay: ADP-Glo Kinase Assay, Flt3 wt; format: biochemical; conditions: 1 μM compound; for inhibition at 1 µM: read-out: Flt3wt % INH (1 μM)
Chain of FLT3wt (P36888 27-993): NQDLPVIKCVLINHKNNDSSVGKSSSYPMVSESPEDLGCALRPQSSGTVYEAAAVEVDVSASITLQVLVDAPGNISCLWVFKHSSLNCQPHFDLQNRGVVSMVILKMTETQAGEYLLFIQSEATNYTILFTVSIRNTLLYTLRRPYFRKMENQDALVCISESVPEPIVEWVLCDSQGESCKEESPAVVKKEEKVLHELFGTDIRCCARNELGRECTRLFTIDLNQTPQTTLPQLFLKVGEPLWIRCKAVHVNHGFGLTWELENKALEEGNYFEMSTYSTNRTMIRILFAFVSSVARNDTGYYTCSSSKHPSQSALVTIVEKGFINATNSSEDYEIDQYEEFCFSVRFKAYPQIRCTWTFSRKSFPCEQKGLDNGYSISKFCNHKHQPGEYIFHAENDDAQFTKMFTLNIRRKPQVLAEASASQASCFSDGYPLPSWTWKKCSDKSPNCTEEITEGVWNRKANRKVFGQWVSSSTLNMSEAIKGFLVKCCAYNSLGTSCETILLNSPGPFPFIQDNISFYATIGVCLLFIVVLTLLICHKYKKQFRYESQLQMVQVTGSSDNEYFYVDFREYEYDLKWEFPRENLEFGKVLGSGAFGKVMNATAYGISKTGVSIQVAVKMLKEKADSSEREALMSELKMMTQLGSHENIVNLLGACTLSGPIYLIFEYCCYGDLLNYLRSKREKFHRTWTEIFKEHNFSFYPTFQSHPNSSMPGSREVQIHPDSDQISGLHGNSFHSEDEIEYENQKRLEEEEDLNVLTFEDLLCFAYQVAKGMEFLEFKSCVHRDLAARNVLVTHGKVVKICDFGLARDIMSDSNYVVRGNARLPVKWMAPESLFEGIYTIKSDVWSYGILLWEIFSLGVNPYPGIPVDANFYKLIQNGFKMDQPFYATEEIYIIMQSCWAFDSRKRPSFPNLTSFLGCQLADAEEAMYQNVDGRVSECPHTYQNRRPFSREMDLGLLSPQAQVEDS
Procedure: as §4, §5, §6

CDK2/E = CDK2/E (Homo sapiens (Human), UniProt P24941); assay: ADP-Glo Kinase Assay, CDK2/E; format: biochemical; conditions: 1 μM compound; for inhibition at 1 µM: read-out: CDK2/E % INH (1 μM)
Procedure: as §4, §5, §6

DYRK1 = DYRK1 (Homo sapiens (Human), UniProt Q13627); assay: ADP-Glo Kinase Assay, DYRK1; format: biochemical; conditions: 1 μM compound; for inhibition at 1 µM: read-out: DYRK1A % INH (1 μM)
Procedure: as §4, §5, §6

Row | SMILES | pIC50 (MV4-11 cells) | pIC50 (HEL92 cells) | pIC50 (HepG2 cells) | pIC50 (SW-480 cells) | Pim-1 % INH (1 μM) (Pim-1) [%] | Pim-2 % INH (1 μM) (Pim-2) [%] | Pim-3 % INH (1 μM) (Pim-3) [%] | Flt3wt % INH (1 μM) (FLT3wt) [%] | CDK2/E % INH (1 μM) (CDK2/E) [%] | DYRK1A % INH (1 μM) (DYRK1) [%] | IC50 (MV4-11 cells) [nM] | IC50 (HEL92 cells) [nM] | IC50 (HepG2 cells) [nM] | inhibition at 1 µM (Pim-1) [%] | inhibition at 1 µM (Pim-2) [%] | inhibition at 1 µM (Pim-3) [%] | inhibition at 1 µM (FLT3wt) [%] | inhibition at 1 µM (CDK2/E) [%] | inhibition at 1 µM (DYRK1) [%] | IC50 (SW-480 cells) [nM]
1 | CCn1c(NCCCN2CCCC2)nc2c([N+](=O)[O-])c(Br)c(Br)cc21 [Example 22P, 5,6-dibromo-1-ethyl-4-nitro-N-[3-(pyrrolidin-1-yl)propyl]-1H-1,3-benzodiazol-2-amine] | 5.54 | 5.23 | 5.57 | 5.60 | – | – | – | – | – | – | – | – | – | – | – | – | – | – | – | –
2 | O=[N+]([O-])c1c(Br)c(Br)cc2c1nc(N[C@H]1CCNC1)n2CC1CC1 [Example 1CI] | – | – | – | – | >95 | 64 | 75 | 19 | 10 | 57 | 1600 | 6100 | 1400 | – | – | – | – | – | – | –
3 | CC(C)n1c(N2CCC[C@H](N)C2)nc2c(C#N)c(Br)c(Br)cc21 [Example 1BV] | – | 5.28 | – | – | >95 | 82 | 91 | 39 | 11 | 80 | 5100 | – | 2900 | – | – | – | – | – | – | –
4 | CC(C)n1c(N2CCN[C@H](C)C2)nc2c([N+](=O)[O-])c(Br)c(Br)cc21 [Example 22AA, 5,6-dibromo-2-[(3R)-3-methylpiperazin-1-yl]-4-nitro-1-(propan-2-yl)-1H-1,3-benzodiazole] | 6.30 | 5.92 | 5.74 | – | – | – | – | – | – | – | – | – | – | > 95 | 36 | 88 | 49 | 11 | 43 | –
5 | CC(C)n1c(N2CCN[C@@H](C)C2)nc2c([N+](=O)[O-])c(Br)c(Br)cc21 [Example 22Z, 5,6-dibromo-2-[(3S)-3-methylpiperazin-1-yl]-4-nitro-1-(propan-2-yl)-1H-1,3-benzodiazole] | 6.15 | 5.62 | 5.80 | – | – | – | – | – | – | – | – | – | – | > 95 | 37 | 85 | 73 | – | 63 | –
6 | CC(C)n1c(NC2CCNC2)nc2c([N+](=O)[O-])c(Br)c(Br)cc21 (stereo not drawn) [Example 1BA] | 5.96 | 5.16 | 5.72 | – | – | – | – | – | – | – | – | – | – | > 95 | 51 | 82 | 15 | 6 | 52 | –
7 | CCn1c(N2CCC(N)CC2)nc2c([N+](=O)[O-])c(Br)c(Br)cc21 [Example 1I] | – | – | – | – | – | – | – | – | – | – | 5100 | – | 4300 | – | – | – | – | – | – | 5600
8 | Cl.NC1CCCN(c2nc3c([N+](=O)[O-])c(Br)c(Br)cc3n2CC2CC2)C1 (stereo not drawn) [Example 1AV] | – | – | – | – | >95 | 54 | 91 | 37 | 12 | 46 | 1400 | – | 4500 | – | – | – | – | – | – | –
9 | COC(CN)CNc1nc2c(C#N)c(Br)c(Br)cc2n1C(C)C (stereo not drawn) [Example 22AC, 2-[(3-amino-2-methoxypropyl)amino]-5,6-dibromo-1-(propan-2-yl)-1H-1,3-benzodiazole-4-carbonitrile] | 5.39 | – | 5.14 | – | – | – | – | – | – | – | – | – | – | > 95 | 30 | 61 | 7 | < 5 | 16 | –
10 | O=[N+]([O-])c1c(Br)c(Br)cc2[nH]c(N3CCNCC3)nc12 [Example 1E] | 5.48 | – | 5.17 | 5.09 | – | – | – | – | – | – | – | – | – | – | – | – | – | – | – | –
11 | CC(C)Cn1c(N2CCC[C@@H](N)C2)nc2c([N+](=O)[O-])c(Br)c(Br)cc21.Cl [Example 1AU] | – | – | – | – | >95 | 52 | 68 | 7 | <5 | – | 2400 | 5800 | 1900 | – | – | – | – | – | – | –
12 | CC(O)Cn1c(N2CCNCC2)nc2c([N+](=O)[O-])c(Br)c(Br)cc21 (stereo not drawn) [Example 1BS] | 6.05 | 5.34 | 5.44 | – | – | – | – | – | – | – | – | – | – | > 95 | 21 | 48 | 39 | 21 | 66 | –
13 | O=[N+]([O-])c1c(Br)c(Br)cc2c1nc(N[C@@H]1CCCNC1)n2CC1CC1 [Example 1CH] | – | – | – | – | 82 | 10 | 32 | 17 | 9 | 14 | 5000 | 5700 | 2200 | – | – | – | – | – | – | –
14 | CC(C)n1c(NC2CCCNC2)nc2c(C#N)c(Br)c(Br)cc21 (stereo not drawn) [Example 1BT] | 6.30 | 5.24 | 5.92 | – | – | – | – | – | – | – | – | – | – | 70 | 16 | 56 | 23 | 26 | 22 | –
15 | CCn1c(N2CCC[C@H](N)C2)nc2c([N+](=O)[O-])c(Cl)c(Cl)cc21 [Example 1CT] | – | – | – | – | >95 | 28 | 64 | 7 | 6 | 22 | 2700 | – | 6000 | – | – | – | – | – | – | –
16 | O=[N+]([O-])c1c(Br)c(Br)cc2c1nc(N1CCNCC1)n2CC1CCC1 [Example 2F, 5,6-dibromo-1-(cyclobutylmethyl)-4-nitro-2-(piperazin-1-yl)-1H-1,3-benzodiazole hydrochloride] | 6.52 | 5.68 | 5.74 | – | – | – | – | – | – | – | – | – | – | > 95 | 70 | 89 | 78 | 15 | > 95 | –
17 | COCCn1c(N2CC[C@@H](N)C2)nc2c([N+](=O)[O-])c(Br)c(Br)cc21 [Example 1CS] | – | – | – | – | >95 | 23 | 56 | 10 | 9 | 37 | 4800 | – | 4700 | – | – | – | – | – | – | –
18 | CC(C)n1c(N2CCC[C@H](N)C2)nc2c(C#N)c(Br)c(Br)cc21 [Example 1BJ] | – | – | 5.32 | – | – | – | – | – | <5 | 54 | 600 | – | – | > 95 | 82 | > 95 | 31 | – | – | –
